From PubChem BioAssay AID328 (DTP/NCI, 2004)
Where “and” joins values, the source holds several entries; their conditions need not be identical. Equal values may be shown once. Inconclusive results and toxic doses are left out.

Test system: BDF1 mice, P388 leukemia ip, median survival T/C
Assay: NCI In Vivo Anticancer Drug Screen. Data for tumor model P388 Leukemia (intraperitoneal) in B6D2F1 (BDF1) mice
Conditions: endpoint: median survival time, higher = longer survival
Procedure, shortened: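 T/C = treated-group survival ÷ vehicle-control survival; tumour transplanted into mice before dosing.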

[1] = dose: 50.0 mg/kg/injection, schedule: Q01DX009 (ip), vehicle: water
[2] = dose: 6.25 mg/kg/injection, schedule: Q01DX009 (ip), vehicle: saline with Tween-80
[3] = dose: 100.0 mg/kg/injection, schedule: Q04DX003 (ip), vehicle: saline with Tween-80
[4] = dose: 200.0 mg/kg/injection, schedule: Q04DX003 (ip), vehicle: saline with Tween-80
[5] = dose: 400.0 mg/kg/injection, schedule: Q04DX003 (ip), vehicle: saline with Tween-80

Compound: CC(=O)NNC(=O)c1ccccn1
- T/C (dose: 4.0 mg/kg/injection, schedule: Q03HX024 (ip), vehicle: saline): 100 % of control
- T/C (dose: 8.0 mg/kg/injection, schedule: Q03HX008 (ip), vehicle: saline): 100 % of control
- T/C (dose: 8.0 mg/kg/injection, schedule: Q03HX016 (ip), vehicle: saline): 95 % of control
- T/C (dose: 8.0 mg/kg/injection, schedule: Q03HX024 (ip), vehicle: saline): 90 % of control
- T/C (dose: 16.0 mg/kg/injection, schedule: Q03HX008 (ip), vehicle: saline): 90 % of control
- T/C (dose: 16.0 mg/kg/injection, schedule: Q03HX016 (ip), vehicle: saline): 90 % of control
- T/C (dose: 16.0 mg/kg/injection, schedule: Q03HX024 (ip), vehicle: saline): 100 % of control
- T/C (dose: 19.0 mg/kg/injection, schedule: Q01DX010 (ip), vehicle: water): 95 % of control
- T/C (dose: 32.0 mg/kg/injection, schedule: Q01DX009 (ip), vehicle: saline): 90 % of control
- T/C (dose: 32.0 mg/kg/injection, schedule: Q01DX009 (oral), vehicle: saline): 90 % of control
- T/C (dose: 32.0 mg/kg/injection, schedule: Q03HX008 (ip), vehicle: saline): 95 % of control
- T/C (dose: 32.0 mg/kg/injection, schedule: Q03HX016 (ip), vehicle: saline): 90 % of control
- T/C (dose: 32.0 mg/kg/injection, schedule: Q03HX024 (ip), vehicle: saline): 90 % of control
- T/C (dose: 32.0 mg/kg/injection, schedule: Q04DX003 (ip), vehicle: saline): 90 % of control
- T/C (dose: 38.0 mg/kg/injection, schedule: Q01DX010 (ip), vehicle: water): 100 % of control
- T/C [1]: 113 % of control
- T/C (dose: 50.0 mg/kg/injection, schedule: Q01DX009 (oral), vehicle: water): 109 % of control
- T/C (dose: 64.0 mg/kg/injection, schedule: Q01DX001 (ip), vehicle: saline): 90 % of control
- T/C (dose: 64.0 mg/kg/injection, schedule: Q01DX001 (oral), vehicle: saline): 90 % of control
- T/C (dose: 64.0 mg/kg/injection, schedule: Q01DX009 (ip), vehicle: saline): 90 % of control
- T/C (dose: 64.0 mg/kg/injection, schedule: Q01DX009 (oral), vehicle: saline): 90 % of control
- T/C (dose: 64.0 mg/kg/injection, schedule: Q03HX008 (ip), vehicle: saline): 95 % of control
- T/C (dose: 64.0 mg/kg/injection, schedule: Q03HX016 (ip), vehicle: saline): 90 % of control
- T/C (dose: 64.0 mg/kg/injection, schedule: Q03HX024 (ip), vehicle: saline): 90 % of control
- T/C (dose: 64.0 mg/kg/injection, schedule: Q04DX003 (ip), vehicle: saline): 100 % of control
- T/C (dose: 64.0 mg/kg/injection, schedule: Q08DX002 (ip), vehicle: saline): 90 % of control
- T/C (dose: 75.0 mg/kg/injection, schedule: Q01DX010 (ip), vehicle: water): 100 % of control
- T/C (dose: 100.0 mg/kg/injection, schedule: Q01DX009 (oral), vehicle: water): 109 % of control
- T/C (dose: 128.0 mg/kg/injection, schedule: Q01DX001 (ip), vehicle: saline): 100 % of control
- T/C (dose: 128.0 mg/kg/injection, schedule: Q01DX001 (oral), vehicle: saline): 95 % of control
- T/C (dose: 128.0 mg/kg/injection, schedule: Q01DX009 (ip), vehicle: saline): 95 % of control
- T/C (dose: 128.0 mg/kg/injection, schedule: Q01DX009 (oral), vehicle: saline): 90 % of control
- T/C (dose: 128.0 mg/kg/injection, schedule: Q04DX003 (ip), vehicle: saline): 90 % of control
- T/C (dose: 128.0 mg/kg/injection, schedule: Q08DX002 (ip), vehicle: saline): 90 % of control
- T/C (dose: 256.0 mg/kg/injection, schedule: Q01DX001 (ip), vehicle: saline): 90 % of control
- T/C (dose: 256.0 mg/kg/injection, schedule: Q01DX001 (oral), vehicle: saline): 90 % of control
- T/C (dose: 256.0 mg/kg/injection, schedule: Q04DX003 (ip), vehicle: saline): 95 % of control

Compound: O=c1[nH]nc(NCCO)c2ccccc12
- T/C (dose: 50.0 mg/kg/injection, schedule: Q01DX009 (ip), vehicle: saline with Tween-80): 112 % of control
- T/C (dose: 100.0 mg/kg/injection, schedule: Q01DX009 (ip), vehicle: saline with Tween-80): 91 % of control
- T/C (dose: 200.0 mg/kg/injection, schedule: Q01DX009 (ip), vehicle: saline with Tween-80): 102 % of control

Compound: CCCCN(CCCC)CC(O)c1cc(Cl)cc2cccnc12 (stereo not drawn)
- T/C (dose: 3.12 mg/kg/injection, schedule: Q01DX009 (ip), vehicle: saline with Tween-80): 100 % of control
- T/C [2]: 104 % of control
- T/C (dose: 12.5 mg/kg/injection, schedule: Q01DX009 (ip), vehicle: saline with Tween-80): 108 % of control
- T/C (dose: 25.0 mg/kg/injection, schedule: Q01DX009 (ip), vehicle: Klucel (hydroxypropylcellulose) (HPC)): 87 % of control and 92 % of control
- T/C (dose: 25.0 mg/kg/injection, schedule: Q04DX003 (ip), vehicle: Klucel (hydroxypropylcellulose) (HPC)): 108 % of control
- T/C (dose: 50.0 mg/kg/injection, schedule: Q01DX009 (ip), vehicle: Klucel (hydroxypropylcellulose) (HPC)): 100 % of control and 108 % of control
- T/C (dose: 50.0 mg/kg/injection, schedule: Q04DX003 (ip), vehicle: Klucel (hydroxypropylcellulose) (HPC)): 100 % of control

Compound: CC(=O)OC(C)(C)/C=C/C(=O)[C@](C)(O)[C@H]1[C@H](O)C[C@@]2(C)[C@@H]3CC=C4[C@@H](C[C@H](O)C(=O)C4(C)C)[C@]3(C)C(=O)C[C@]12C
- T/C (dose: 0.07 mg/kg/injection, schedule: Q01DX009 (ip), vehicle: saline): 95 % of control
- T/C (dose: 0.09 mg/kg/injection, schedule: Q04DX003 (ip), vehicle: saline): 100 % of control
- T/C (dose: 0.12 mg/kg/injection, schedule: Q01DX009 (ip), vehicle: saline): 115 % of control
- T/C (dose: 0.18 mg/kg/injection, schedule: Q01DX009 (ip), vehicle: saline): 105 % of control
- T/C (dose: 0.18 mg/kg/injection, schedule: Q01DX010 (ip), vehicle: carboxymethylcellulose (CMC)): 120 % of control
- T/C (dose: 0.18 mg/kg/injection, schedule: Q04DX003 (ip), vehicle: saline): 104 % of control
- T/C (dose: 0.25 mg/kg/injection, schedule: Q01DX010 (ip), vehicle: carboxymethylcellulose (CMC)): 113 % of control
- T/C (dose: 0.37 mg/kg/injection, schedule: Q01DX010 (ip), vehicle: carboxymethylcellulose (CMC)): 100 % of control
- T/C (dose: 0.5 mg/kg/injection, schedule: Q01DX010 (ip), vehicle: carboxymethylcellulose (CMC)): 118 % of control
- T/C (dose: 0.75 mg/kg/injection, schedule: Q01DX010 (ip), vehicle: carboxymethylcellulose (CMC)): 115 % of control
- T/C (dose: 1.5 mg/kg/injection, schedule: Q01DX010 (ip), vehicle: carboxymethylcellulose (CMC)): 115 % of control
- T/C (dose: 132.0 micrograms/kg/injection, schedule: Q01DX009 (ip), vehicle: saline): 112 % of control
- T/C (dose: 198.0 micrograms/kg/injection, schedule: Q01DX009 (ip), vehicle: saline): 104 % of control

Compound: O.O=c1[nH]cc(Cl)c(=O)[nH]1.[NH2-].[NH2-].[Pt+2]
- T/C (dose: 6.25 mg/kg/injection, schedule: Q01DX009 (ip), vehicle: water): 118 % of control
- T/C (dose: 12.5 mg/kg/injection, schedule: Q01DX009 (ip), vehicle: water): 155 % of control
- T/C (dose: 12.5 mg/kg/injection, schedule: Q04DX003 (ip), vehicle: water): 123 % of control
- T/C (dose: 25.0 mg/kg/injection, schedule: Q01DX009 (ip), vehicle: water): 229 % of control and 171 % of control
- T/C (dose: 25.0 mg/kg/injection, schedule: Q04DX003 (ip), vehicle: water): 166 % of control
- T/C [1]: 192 % of control
- T/C (dose: 50.0 mg/kg/injection, schedule: Q04DX003 (ip), vehicle: water): 200 % of control

Compound: N#CC1C(=O)NC(=O)C(C#N)C12CCCCC2 (stereo not drawn)
- T/C (dose: 50.0 mg/kg/injection, schedule: Q01DX005 (ip), vehicle: saline with Tween-80): 100 % of control
- T/C (dose: 50.0 mg/kg/injection, schedule: Q04DX003 (ip), vehicle: saline with Tween-80): 110 % of control
- T/C (dose: 100.0 mg/kg/injection, schedule: Q01DX005 (ip), vehicle: saline with Tween-80): 100 % of control
- T/C [3]: 120 % of control
- T/C (dose: 200.0 mg/kg/injection, schedule: Q01DX005 (ip), vehicle: saline with Tween-80): 109 % of control
- T/C [4]: 105 % of control

Compound: O=[N+]([O-])c1cccc(OCCOc2ccc(S(=O)(=O)F)cc2)c1
- T/C [3]: 100 % of control
- T/C [5]: 100 % of control

Compound: Cc1ccc(C(=O)CCCCCCCCC(=O)c2ccc(C)cc2)cc1
- T/C [3]: 100 % of control
- T/C [4]: 90 % of control
- T/C [5]: 100 % of control

Compound: CCCCCCCCCCCCCCCCNC(C)c1ccccc1 (stereo not drawn)
- T/C (dose: 12.5 mg/kg/injection, schedule: Q04DX003 (ip), vehicle: saline with Tween-80): 101 % of control
- T/C (dose: 25.0 mg/kg/injection, schedule: Q04DX003 (ip), vehicle: saline with Tween-80): 106 % of control

Compound: CN(c1ccccc1)c1c2c(oc(=O)c1Cl)-c1ccccc1SC2
- T/C (dose: 1.56 mg/kg/injection, schedule: Q01DX009 (ip), vehicle: saline with Tween-80): 101 % of control
- T/C (dose: 3.13 mg/kg/injection, schedule: Q01DX009 (ip), vehicle: saline with Tween-80): 97 % of control
- T/C [2]: 91 % of control
